The nature of one data set: in vivo. The settings on record: mouse, iv. On the procedure: (§1) FIG. 10A-D: 10A. Single dose acute toxicity study by Up/Down Methods. Body weights of the mice following dosing. FIG. 10B. Mean body weights of mice during multidose MTD study. Data are shown as mean±SD for 5 mice. FIG. 10C. Median body weight of mice during multidose MTD study. FIG. 10D. Plasma concentrations p62-ZZ antagonist in pilot mice after 100 mg/kg IV.
(§2) Preliminary in vivo studies of the p62-ZZ antagonist #3 were performed 5 to determine the toxicity, multiple doses MTD and plasma concentration of the antagonist given IV. For the pilot PK study the prototype p62-ZZ antagonist (compound #3) was used as an internal standard for Mass spectroscopy assays.

A short description of data set [1]: Exploratory metabolic studies.
Data set [2] concerns MM1.S cells. The data set can be described thus: Reactive oxygen species detection in MM1.S cells. The following applies: 10 μM, 6 hours. Type of data set: cell-based, human. The method, then: (§3) FIG. 9A-C: 9A. […] MM1.S cells were cultured with 10 μM of p62-ZZ antagonist for the indicated time, and then cell lysates were collected. Caspase 9, 7 and 3 were detected by Western blotting using anti-caspase 9, 7 and 3 specific antibodies (Cell Signaling). FIG. 9B. Detection of Apoptosis using the TUNEL reaction with MM1.S cells treated with p62-ZZ antagonist. MM1.S cells were treated with 10/μM of p62-ZZ antagonist #3 for 24 hours and then the cells were collected and mounted on glass slides using the cytospin procedure. Terminal deoxynucleotidyl transferase nick end labeling (TUNEL) reactions were conducted using an In Situ Cell Death Detection Kit (Roche) according to the manufacturer's instructions. The stained cells were analyzed using a fluorescence microscope equipped with standard green filter. FIG. 9C. The p62-ZZ antagonist induced Reactive Oxygen Species in MM1.S cells. MM1.S cells were treated with 10 μM of p62-ZZ antagonist #3 for 6 hours. Cells were collected and stained for Reactive Oxygen Species (ROS) using a Total ROS detection kit (Enzo) according to the manufacturer's instructions. The expression of apoptosis markers in p62-ZZ antagonist treated on 25 MM cells was determined to determine the mechanism action of this antagonist.

Data set [3] deals with Primary human stromal cells. The data set can be described thus: Stromal cell growth, MTT assay. Type of data set: cell-based. The method, then: FIG. 4A-C: 4A. Effect of p62-ZZ inhibitor #3 on myeloma cell growth. MM cell growth was assayed by MTT assay. Data are shown as mean±SD (n=5). FIG. 4B. MTT assay of CD138(+) primary myeloma cells. Data are shown as mean±SD (n=5). FIG. 4C. Effects of p62-ZZ inhibitors on human stromal cell growth. Primary human stromal cells (5×10^3/well) were cultured with 10 μM of p62-ZZ inhibitor (#1-6) containing 10% FCS in IMDM for 48 hours. Stromal cells growth was assayed by MTT assay. Data are shown as the mean±SD (n=5). *P<0.01 compared to vehicle treated culture. MM1.S (3×10^5 cells/well) or CD138 (+) (1×10^5 cells/well) primary myeloma cells were incubated in 96-well plates in the presence of RPMI-1640-10% FCS and various concentrations of p62-ZZ inhibitor #3 at 37° C. 5% CO2 for 48 h to determine the IC50 for inhibiting myeloma cell proliferation.
In general terms: Tetrazolium assays rely on reduction of a dye to a coloured formazan, in cell work by metabolically active cells.

The test system of data set [4] is MM1.S cells. The data set can be described thus: Caspase 9, 7 and 3 cleavage in MM1.S cells, Western blot. Type of data set: cell-based, human. The settings on record: 10 μM, after 16 hours. The method, then:
as §3
For orientation: A western blot detects proteins with antibodies after separation by electrophoresis.

A short description of data set [5]: In vivo toxicity, single dose and multidose MTD study. The method, then: as §1, §2
The next data set has as its system phospho-PKCζ. In words: TNF-α induced PKCζ phosphorylation in MM1.S cells. Type of data set: cell-based, human. The settings on record: pre-treated 3 hours. On the procedure: Compound 3 was tested for its capacity to block MM-stimulated signaling in marrow stromal cells, thereby resulting in less bone destruction and MM growth. The effects of the compound 3 on GFP-labeled MM1.S myeloma cell growth with/without stromal cells, IL-6 and VCAM-1 expression on stromal cells induced by TNF-α and OCL formation, and TNF-α induced PKCζ phosphorylation, the specific kinase enzyme activated p62-ZZ, were examined. GFP-labeled MM1.S myeloma cells or normal human CFU-GM, a source of OCL precursors, were then co-cultured with human stromal cells with the p62-ZZ inhibitor. […] VCAM-1 expression and IL-6 production induced by TNF-α on stromal cells was blocked by 30% and 90% respectively compared to vehicle levels. Furthermore, TNF-α induced PKC, phosphorylation blocked was in stromal cells and MM1.S when pre-treated with this p62-ZZ inhibitory compound for 3 hours.

By half-life is commonly meant how long it takes for the measured level to halve. Read a low half-life as fast loss. In “in vivo”, `OCCNCc1ccc(OCc2ccccc2)c(OCc2ccccc2)c1` [Compound 3, 2-[[3,4-bis(phenylmethoxy)phenyl]methylamino]ethanol] had a half-life of 4 h. Moreover, the “distinct peaks in metabolic studies (likely hydroxylation or glucuronidation)” value in data set [1] amounted to 3. Besides, in the data set on MM1.S cells [2], the “reactive oxygen species (ROS) production” value was “induced reactive oxygen species (ROS) production”. In data set [3], the “toxicity to regular stromal cells” value is on record as “low toxicity”. In data set [3] (10 μM, 48 hours), the “proliferation of stromal cells by MTT assay” value is listed as “did not change proliferation”. Also, the “cleavage of caspase 9, 7 and 3” value with MM1.S cells [4] is “induced cleavage”. Moreover, the “effect on body weight” value in data set [5] (doses up to 100 mg/kg, single dose or qdx5/day, up to 20 days) is “no effect”. The “gross pathology of brain, liver, kidney tissue” value in data set [5] (mice of the in vivo studies) is listed as “no gross pathology”. Moreover, the “TNF-α induced PKCζ phosphorylation in MM1.S” value in the data set with phospho-PKCζ was “blocked”.

The record behind these values is US11739053B2, “P62-ZZ chemical inhibitor” (ID4PHARMA, LLC, priority 2011, dated 2023).
